Reference: ChEMBL document CHEMBL4649982, “Selective targeting of Bromodomains of the Bromodomain-PHD Fingers family impairs osteoclast differentiation” (ACS Chem Biol, 2017)
Several values for one entry are separate records, joined by “and”; a condition that tells them apart may be missing. Identical values can stand only once.

Key:
[1] = biological target: Bromodomain testis-specific protein (Homo sapiens) (UniProt Q58F21); conditions: Compound concentration 10.0 uM, Protein concentration 2.0 uM
[2] = biological target: Histone acetyltransferase KAT2A (Homo sapiens) (UniProt Q92830); conditions: Compound concentration 10.0 uM, Protein concentration 2.0 uM
[3] = biological target: Bromodomain-containing protein 9 (Homo sapiens) (UniProt Q9H8M2); conditions: Compound concentration 10.0 uM, Protein concentration 2.0 uM
[4] = biological target: Protein polybromo-1 (Homo sapiens) (UniProt Q86U86); conditions: Compound concentration 10.0 uM, Protein concentration 2.0 uM
[5] = biological target: Histone-lysine N-methyltransferase ASH1L (Homo sapiens) (UniProt Q9NR48); conditions: Compound concentration 10.0 uM, Protein concentration 2.0 uM
[6] = biological target: Bromodomain-containing protein 3 (Homo sapiens) (UniProt Q15059); conditions: Compound concentration 10.0 uM, Protein concentration 2.0 uM
[7] = biological target: Transcription initiation factor TFIID subunit 1-like (Homo sapiens) (UniProt Q8IZX4); conditions: Compound concentration 10.0 uM, Protein concentration 2.0 uM
[8] = biological target: Bromodomain adjacent to zinc finger domain protein 2A (Homo sapiens) (UniProt Q9UIF9); conditions: Compound concentration 10.0 uM, Protein concentration 2.0 uM
[9] = biological target: CREB-binding protein (Homo sapiens) (UniProt Q92793); conditions: Compound concentration 10.0 uM, Protein concentration 2.0 uM
[10] = biological target: Histone-lysine N-methyltransferase 2A (Homo sapiens) (UniProt Q03164); conditions: Compound concentration 10.0 uM, Protein concentration 2.0 uM
[11] = biological target: Transcription initiation factor TFIID subunit 1 (Homo sapiens) (UniProt P21675); conditions: Compound concentration 10.0 uM, Protein concentration 2.0 uM
[12] = biological target: Protein polybromo-1 (Homo sapiens) (UniProt Q86U86); conditions: Compound concentration 10.0 uM, Protein concentration 2.0 uM; remark: listed apart in the source
[13] = biological target: Histone acetyltransferase KAT2B (Homo sapiens) (UniProt Q92831); conditions: Compound concentration 10.0 uM, Protein concentration 2.0 uM
[14] = biological target: Nuclear body protein SP140 (Homo sapiens) (UniProt Q13342); conditions: Compound concentration 10.0 uM, Protein concentration 2.0 uM
Peregrin (Homo sapiens) [15] = biological target: Peregrin (Homo sapiens) (UniProt P55201); conditions: Compound concentration 10.0 uM, Protein concentration 2.0 uM
[16] = biological target: Bromodomain-containing protein 1 (Homo sapiens) (UniProt O95696); conditions: Compound concentration 10.0 uM, Protein concentration 2.0 uM
[17] = biological target: Protein polybromo-1 (Homo sapiens) (UniProt Q86U86); conditions: Compound concentration 10.0 uM, Protein concentration 2.0 uM; remark: listed apart in the source
[18] = biological target: Histone acetyltransferase p300 (Homo sapiens) (UniProt Q09472); conditions: Compound concentration 10.0 uM, Protein concentration 2.0 uM
[19] = biological target: Protein polybromo-1 (Homo sapiens) (UniProt Q86U86); conditions: Compound concentration 10.0 uM, Protein concentration 2.0 uM; remark: listed apart in the source
[20] = biological target: Nuclear body protein SP140-like protein (Homo sapiens) (UniProt Q9H930); conditions: Compound concentration 10.0 uM, Protein concentration 2.0 uM
[21] = biological target: Bromodomain-containing protein 7 (Homo sapiens) (UniProt Q9NPI1); conditions: Compound concentration 10.0 uM, Protein concentration 2.0 uM
[22] = biological target: Bromodomain and WD repeat-containing protein 1 (Homo sapiens) (UniProt Q9NSI6); conditions: Compound concentration 10.0 uM, Protein concentration 2.0 uM
[23] = biological target: Transcription intermediary factor 1-alpha (Homo sapiens) (UniProt O15164); conditions: Compound concentration 10.0 uM, Protein concentration 2.0 uM
[24] = biological target: Transcription initiation factor TFIID subunit 1 (Homo sapiens) (UniProt P21675); conditions: Compound concentration 10.0 uM, Protein concentration 2.0 uM; remark: listed apart in the source
[25] = biological target: Chromatin remodeling regulator CECR2 (Homo sapiens) (UniProt Q9BXF3); conditions: Compound concentration 10.0 uM, Protein concentration 2.0 uM
[26] = biological target: ATPase family AAA domain-containing protein 2B (Homo sapiens) (UniProt Q9ULI0); conditions: Compound concentration 10.0 uM, Protein concentration 2.0 uM
[27] = biological target: SWI/SNF-related matrix-associated actin-dependent regulator of chromatin subfamily A member 4 (Homo sapiens) (UniProt P51532); conditions: Compound concentration 10.0 uM, Protein concentration 2.0 uM
[28] = biological target: T1, E3 ubiquitin-protein ligase TRIM33 (Homo sapiens) (UniProt Q9UPN9); conditions: Compound concentration […], Protein concentration 200.0 uM
T1 sequence (whole entry): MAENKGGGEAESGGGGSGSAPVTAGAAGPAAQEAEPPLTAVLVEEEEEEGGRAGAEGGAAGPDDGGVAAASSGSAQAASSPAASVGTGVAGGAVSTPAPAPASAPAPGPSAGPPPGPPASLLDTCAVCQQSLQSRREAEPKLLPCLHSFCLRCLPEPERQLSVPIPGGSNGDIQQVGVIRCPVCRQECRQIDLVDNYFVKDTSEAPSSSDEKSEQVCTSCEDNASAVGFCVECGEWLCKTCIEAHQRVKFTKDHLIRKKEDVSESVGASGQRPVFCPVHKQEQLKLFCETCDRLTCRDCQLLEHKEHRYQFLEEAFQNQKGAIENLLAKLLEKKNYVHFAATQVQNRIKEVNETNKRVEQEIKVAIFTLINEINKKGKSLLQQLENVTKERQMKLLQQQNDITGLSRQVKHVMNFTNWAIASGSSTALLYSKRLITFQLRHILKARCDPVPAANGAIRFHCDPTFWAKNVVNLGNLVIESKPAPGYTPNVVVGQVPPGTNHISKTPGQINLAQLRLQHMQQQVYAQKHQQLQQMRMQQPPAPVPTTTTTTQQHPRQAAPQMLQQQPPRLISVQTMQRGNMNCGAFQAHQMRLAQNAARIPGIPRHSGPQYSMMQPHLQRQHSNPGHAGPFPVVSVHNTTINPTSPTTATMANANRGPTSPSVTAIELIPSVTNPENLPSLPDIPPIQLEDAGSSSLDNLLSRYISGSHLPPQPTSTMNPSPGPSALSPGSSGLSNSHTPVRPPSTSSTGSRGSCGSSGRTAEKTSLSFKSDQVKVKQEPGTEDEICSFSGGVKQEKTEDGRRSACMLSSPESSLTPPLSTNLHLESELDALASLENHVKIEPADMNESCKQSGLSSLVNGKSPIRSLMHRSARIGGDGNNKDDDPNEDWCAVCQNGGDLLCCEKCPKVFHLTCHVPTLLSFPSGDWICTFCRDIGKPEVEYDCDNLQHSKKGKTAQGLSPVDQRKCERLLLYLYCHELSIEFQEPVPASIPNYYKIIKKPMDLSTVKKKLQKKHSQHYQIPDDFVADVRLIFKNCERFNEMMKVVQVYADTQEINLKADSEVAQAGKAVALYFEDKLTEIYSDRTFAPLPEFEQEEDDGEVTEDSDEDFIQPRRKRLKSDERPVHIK

[29] = biological target: Transcription intermediary factor 1-beta (Homo sapiens) (UniProt Q13263); conditions: Compound concentration 10.0 uM, Protein concentration 2.0 uM
[30] = biological target: Bromodomain and PHD finger-containing protein 3 (Homo sapiens) (UniProt Q9ULD4); conditions: Compound concentration 10.0 uM, Protein concentration 2.0 uM
[31] = biological target: Transcription intermediary factor 1-alpha (Homo sapiens) (UniProt O15164); assay: Thermal Shift Assay. Domain start/stop: N790-P971; conditions: Compound concentration 10.0 uM, Protein concentration 2.0 uM
[32] = biological target: Tyrosine-protein kinase BAZ1B (Homo sapiens) (UniProt Q9UIG0); conditions: Compound concentration 10.0 uM, Protein concentration 2.0 uM
[33] = biological target: Bromodomain-containing protein 3 (Homo sapiens) (UniProt Q15059); conditions: Compound concentration 10.0 uM, Protein concentration 2.0 uM; remark: listed apart in the source
[34] = biological target: Nucleosome-remodeling factor subunit BPTF (Homo sapiens) (UniProt Q12830); conditions: Compound concentration 10.0 uM, Protein concentration 2.0 uM
[35] = biological target: ATPase family AAA domain-containing protein 2 (Homo sapiens) (UniProt Q6PL18); conditions: Compound concentration 10.0 uM, Protein concentration 2.0 uM
[36] = biological target: Protein polybromo-1 (Homo sapiens) (UniProt Q86U86); conditions: Compound concentration 10.0 uM, Protein concentration 2.0 uM; remark: listed apart in the source
[37] = biological target: Transcription initiation factor TFIID subunit 1-like (Homo sapiens) (UniProt Q8IZX4); conditions: Compound concentration 10.0 uM, Protein concentration 2.0 uM; remark: listed apart in the source
Peregrin (Homo sapiens) [38] = biological target: Peregrin (Homo sapiens) (UniProt P55201); conditions: Compound concentration 10.0 uM, Protein concentration 2.0 uM; remark: listed apart in the source
[39] = biological target: Bromodomain-containing protein 1 (Homo sapiens, UniProt O95696)
[40] = biological target: Bromodomain adjacent to zinc finger domain protein 2B (Homo sapiens) (UniProt Q9UIF8); conditions: Compound concentration 10.0 uM, Protein concentration 2.0 uM
[41] = biological target: Bromodomain adjacent to zinc finger domain protein 1A (Homo sapiens) (UniProt Q9NRL2); conditions: Compound concentration 10.0 uM, Protein concentration 2.0 uM
[42] = biological target: SWI/SNF-related matrix-associated actin-dependent regulator of chromatin subfamily A member 2 (Homo sapiens) (UniProt P51531); conditions: Compound concentration 10.0 uM, Protein concentration 2.0 uM
[43] = biological target: Bromodomain-containing protein 2 (Homo sapiens) (UniProt P25440); conditions: Compound concentration 10.0 uM, Protein concentration 2.0 uM
[44] = biological target: Chromatin remodeling regulator CECR2 (Homo sapiens) (UniProt Q9BXF3); conditions: Compound concentration 10.0 uM, Protein concentration 2.0 uM; remark: listed apart in the source
[45] = biological target: T1, E3 ubiquitin-protein ligase TRIM33 (Homo sapiens); assay: Thermal Shift Assay. Domain start/stop: D882-P1073; conditions: Compound concentration 10.0 uM
[46] = biological target: Bromodomain-containing protein 4 (Homo sapiens) (UniProt O60885); conditions: Compound concentration 10.0 uM, Protein concentration 2.0 uM
[47] = biological target: Bromodomain testis-specific protein (Homo sapiens) (UniProt Q58F21); conditions: Compound concentration 10.0 uM, Protein concentration 2.0 uM; remark: listed apart in the source
[48] = biological target: PH-interacting protein (Homo sapiens) (UniProt Q8WWQ0); conditions: Compound concentration 10.0 uM, Protein concentration 2.0 uM
[49] = biological target: Bromodomain and WD repeat-containing protein 3 (Homo sapiens) (UniProt Q6RI45); conditions: Compound concentration 10.0 uM, Protein concentration 2.0 uM
[50] = biological target: Protein polybromo-1 (Homo sapiens) (UniProt Q86U86); conditions: Compound concentration 10.0 uM, Protein concentration 2.0 uM; remark: listed apart in the source
[51] = biological target: Bromodomain-containing protein 2 (Homo sapiens) (UniProt P25440); conditions: Compound concentration 10.0 uM, Protein concentration 2.0 uM; remark: listed apart in the source

Sequence of Transcription intermediary factor 1-alpha (Homo sapiens) (O15164 whole entry): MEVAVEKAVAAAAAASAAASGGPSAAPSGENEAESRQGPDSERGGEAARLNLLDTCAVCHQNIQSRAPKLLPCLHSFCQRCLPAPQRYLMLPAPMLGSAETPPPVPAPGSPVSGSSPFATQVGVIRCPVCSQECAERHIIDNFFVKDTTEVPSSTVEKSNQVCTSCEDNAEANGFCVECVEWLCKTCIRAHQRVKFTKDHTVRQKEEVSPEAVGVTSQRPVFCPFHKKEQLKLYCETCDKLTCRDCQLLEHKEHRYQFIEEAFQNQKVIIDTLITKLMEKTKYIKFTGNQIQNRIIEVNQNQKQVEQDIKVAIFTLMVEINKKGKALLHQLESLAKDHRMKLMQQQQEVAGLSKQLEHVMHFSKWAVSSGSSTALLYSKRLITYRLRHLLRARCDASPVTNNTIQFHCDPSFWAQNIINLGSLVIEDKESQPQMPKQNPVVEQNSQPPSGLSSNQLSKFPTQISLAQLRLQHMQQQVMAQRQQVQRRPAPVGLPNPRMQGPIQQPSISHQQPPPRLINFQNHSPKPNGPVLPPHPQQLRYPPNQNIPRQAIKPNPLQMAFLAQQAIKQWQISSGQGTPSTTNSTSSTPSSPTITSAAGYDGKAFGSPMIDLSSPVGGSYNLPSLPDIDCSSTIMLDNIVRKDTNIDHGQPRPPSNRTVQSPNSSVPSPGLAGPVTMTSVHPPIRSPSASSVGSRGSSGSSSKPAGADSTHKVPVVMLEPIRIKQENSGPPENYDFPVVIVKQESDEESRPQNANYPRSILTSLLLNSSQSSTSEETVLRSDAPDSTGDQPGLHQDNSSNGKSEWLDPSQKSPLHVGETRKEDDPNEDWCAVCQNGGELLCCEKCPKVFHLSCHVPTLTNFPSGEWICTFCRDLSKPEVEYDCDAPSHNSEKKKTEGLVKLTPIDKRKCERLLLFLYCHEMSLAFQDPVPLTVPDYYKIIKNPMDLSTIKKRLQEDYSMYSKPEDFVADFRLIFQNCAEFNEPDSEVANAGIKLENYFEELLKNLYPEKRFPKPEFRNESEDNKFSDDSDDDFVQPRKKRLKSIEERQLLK
Sequence of Protein polybromo-1 (Homo sapiens) (Q86U86 whole entry): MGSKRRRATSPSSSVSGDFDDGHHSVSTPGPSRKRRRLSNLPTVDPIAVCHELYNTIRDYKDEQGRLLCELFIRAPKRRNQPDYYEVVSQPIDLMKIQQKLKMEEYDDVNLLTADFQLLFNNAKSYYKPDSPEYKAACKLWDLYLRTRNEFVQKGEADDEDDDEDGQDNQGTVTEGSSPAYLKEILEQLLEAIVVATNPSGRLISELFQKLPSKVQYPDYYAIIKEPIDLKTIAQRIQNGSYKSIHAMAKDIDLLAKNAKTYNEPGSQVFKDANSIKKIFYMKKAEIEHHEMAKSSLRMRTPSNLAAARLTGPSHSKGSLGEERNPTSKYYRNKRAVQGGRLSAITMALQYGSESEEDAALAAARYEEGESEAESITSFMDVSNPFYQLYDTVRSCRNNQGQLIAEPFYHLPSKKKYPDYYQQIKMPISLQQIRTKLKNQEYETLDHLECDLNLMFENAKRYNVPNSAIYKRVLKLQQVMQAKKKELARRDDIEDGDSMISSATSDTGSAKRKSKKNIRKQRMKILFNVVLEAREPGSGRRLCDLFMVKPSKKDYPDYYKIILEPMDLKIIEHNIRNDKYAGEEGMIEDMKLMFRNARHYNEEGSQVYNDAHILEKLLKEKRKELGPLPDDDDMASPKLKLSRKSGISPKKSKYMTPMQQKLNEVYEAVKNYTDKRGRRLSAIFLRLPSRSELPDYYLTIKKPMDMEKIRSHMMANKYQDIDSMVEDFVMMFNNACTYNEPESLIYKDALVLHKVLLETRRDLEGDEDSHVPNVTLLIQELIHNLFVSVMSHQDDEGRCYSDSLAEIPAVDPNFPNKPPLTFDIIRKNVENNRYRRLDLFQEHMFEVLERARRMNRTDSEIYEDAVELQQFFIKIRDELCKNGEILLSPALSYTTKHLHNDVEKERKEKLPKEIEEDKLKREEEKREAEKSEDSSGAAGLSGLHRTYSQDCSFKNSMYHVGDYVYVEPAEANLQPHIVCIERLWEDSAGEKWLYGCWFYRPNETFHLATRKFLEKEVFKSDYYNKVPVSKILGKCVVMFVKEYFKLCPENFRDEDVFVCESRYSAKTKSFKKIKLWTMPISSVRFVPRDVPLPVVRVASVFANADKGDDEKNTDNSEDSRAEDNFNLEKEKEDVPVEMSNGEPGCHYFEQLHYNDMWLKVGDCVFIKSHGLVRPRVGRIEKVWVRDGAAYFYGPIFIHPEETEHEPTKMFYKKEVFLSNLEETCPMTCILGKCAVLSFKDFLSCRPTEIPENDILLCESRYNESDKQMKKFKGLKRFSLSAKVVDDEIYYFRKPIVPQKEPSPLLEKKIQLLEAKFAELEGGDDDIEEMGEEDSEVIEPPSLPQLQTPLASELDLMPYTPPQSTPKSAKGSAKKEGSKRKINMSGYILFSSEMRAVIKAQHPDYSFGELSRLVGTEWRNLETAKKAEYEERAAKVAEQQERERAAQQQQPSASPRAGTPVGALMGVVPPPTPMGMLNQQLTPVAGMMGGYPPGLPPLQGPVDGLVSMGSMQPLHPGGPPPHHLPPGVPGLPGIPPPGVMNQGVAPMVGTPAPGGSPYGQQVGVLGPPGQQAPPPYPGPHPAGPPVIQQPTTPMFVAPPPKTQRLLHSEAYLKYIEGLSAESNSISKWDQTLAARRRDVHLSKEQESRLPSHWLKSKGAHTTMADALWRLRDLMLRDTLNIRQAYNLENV
Sequence of Transcription initiation factor TFIID subunit 1-like (Homo sapiens) (Q8IZX4 whole entry, the tested form may be a part): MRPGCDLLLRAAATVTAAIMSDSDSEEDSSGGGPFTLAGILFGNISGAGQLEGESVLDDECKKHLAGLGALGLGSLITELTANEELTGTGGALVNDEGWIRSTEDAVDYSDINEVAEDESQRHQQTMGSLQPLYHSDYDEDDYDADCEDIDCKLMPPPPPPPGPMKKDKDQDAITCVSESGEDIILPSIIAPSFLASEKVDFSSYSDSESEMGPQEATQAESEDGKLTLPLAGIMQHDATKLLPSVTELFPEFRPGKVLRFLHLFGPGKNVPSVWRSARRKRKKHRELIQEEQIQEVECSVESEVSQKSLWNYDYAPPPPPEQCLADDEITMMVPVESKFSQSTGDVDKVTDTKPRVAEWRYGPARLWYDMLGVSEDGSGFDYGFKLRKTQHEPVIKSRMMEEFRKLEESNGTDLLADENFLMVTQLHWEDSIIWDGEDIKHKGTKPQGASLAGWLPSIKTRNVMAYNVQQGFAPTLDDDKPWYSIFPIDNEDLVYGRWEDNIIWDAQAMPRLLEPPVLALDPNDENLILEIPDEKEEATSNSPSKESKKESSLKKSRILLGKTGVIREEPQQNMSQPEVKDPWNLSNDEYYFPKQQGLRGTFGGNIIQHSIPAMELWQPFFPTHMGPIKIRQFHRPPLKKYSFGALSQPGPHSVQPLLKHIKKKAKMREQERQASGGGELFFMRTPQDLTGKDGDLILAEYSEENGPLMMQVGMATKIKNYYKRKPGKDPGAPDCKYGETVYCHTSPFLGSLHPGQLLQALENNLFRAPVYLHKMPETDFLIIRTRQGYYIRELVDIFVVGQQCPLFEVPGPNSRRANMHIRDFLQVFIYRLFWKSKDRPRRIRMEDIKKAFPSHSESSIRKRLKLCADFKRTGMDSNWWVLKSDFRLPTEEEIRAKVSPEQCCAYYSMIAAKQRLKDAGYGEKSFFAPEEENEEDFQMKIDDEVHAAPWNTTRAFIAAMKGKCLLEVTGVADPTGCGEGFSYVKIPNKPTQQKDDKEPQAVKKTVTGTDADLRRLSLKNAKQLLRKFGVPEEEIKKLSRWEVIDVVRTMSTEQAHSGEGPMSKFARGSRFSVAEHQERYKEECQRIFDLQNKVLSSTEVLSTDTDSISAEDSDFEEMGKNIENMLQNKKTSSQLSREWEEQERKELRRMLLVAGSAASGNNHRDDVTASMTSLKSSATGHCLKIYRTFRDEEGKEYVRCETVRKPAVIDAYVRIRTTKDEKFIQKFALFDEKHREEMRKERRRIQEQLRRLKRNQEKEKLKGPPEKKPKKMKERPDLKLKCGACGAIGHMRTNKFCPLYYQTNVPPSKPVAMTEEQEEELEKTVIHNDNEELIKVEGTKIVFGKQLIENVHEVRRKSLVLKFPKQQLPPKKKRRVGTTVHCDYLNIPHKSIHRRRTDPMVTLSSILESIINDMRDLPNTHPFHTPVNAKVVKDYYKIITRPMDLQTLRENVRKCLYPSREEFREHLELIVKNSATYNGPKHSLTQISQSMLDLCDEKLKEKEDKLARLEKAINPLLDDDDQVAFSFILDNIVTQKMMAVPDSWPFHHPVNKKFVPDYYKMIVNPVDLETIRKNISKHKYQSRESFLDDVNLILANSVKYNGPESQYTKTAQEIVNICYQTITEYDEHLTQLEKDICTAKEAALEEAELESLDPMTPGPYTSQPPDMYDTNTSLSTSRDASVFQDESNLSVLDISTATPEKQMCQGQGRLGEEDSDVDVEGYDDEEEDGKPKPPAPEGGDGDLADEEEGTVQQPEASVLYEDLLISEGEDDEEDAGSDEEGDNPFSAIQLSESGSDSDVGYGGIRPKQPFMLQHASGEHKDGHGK
Sequence of Nuclear body protein SP140-like protein (Homo sapiens) (Q9H930 whole entry): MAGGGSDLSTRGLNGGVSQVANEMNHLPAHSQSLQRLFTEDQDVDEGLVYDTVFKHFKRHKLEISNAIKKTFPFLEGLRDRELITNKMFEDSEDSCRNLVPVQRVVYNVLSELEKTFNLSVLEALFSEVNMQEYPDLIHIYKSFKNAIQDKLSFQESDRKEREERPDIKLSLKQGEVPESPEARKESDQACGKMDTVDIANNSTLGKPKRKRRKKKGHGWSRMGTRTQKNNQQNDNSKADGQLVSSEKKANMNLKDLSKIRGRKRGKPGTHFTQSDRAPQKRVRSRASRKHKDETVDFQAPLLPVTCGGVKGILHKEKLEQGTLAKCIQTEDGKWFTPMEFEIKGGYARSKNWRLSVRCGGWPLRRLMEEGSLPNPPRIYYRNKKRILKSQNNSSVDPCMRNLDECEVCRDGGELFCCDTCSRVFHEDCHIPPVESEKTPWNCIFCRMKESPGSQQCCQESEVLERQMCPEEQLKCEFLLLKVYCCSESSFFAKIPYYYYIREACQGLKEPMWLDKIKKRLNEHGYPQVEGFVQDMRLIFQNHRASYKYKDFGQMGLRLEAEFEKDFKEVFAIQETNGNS

- ΔTm [1]: 1.19 °C
- ΔTm [2]: 0.57 °C
- ΔTm [3]: 1.48 °C
- ΔTm [4]: 1.45 °C
- ΔTm [5]: 0.82 °C
- ΔTm [6]: 2.03 °C
- ΔTm [7]: 0.36 °C
- ΔTm [8]: 0.47 °C
- ΔTm [9]: 1.22 °C and 1.19 °C
- ΔTm [10]: 0.64 °C
- ΔTm [11]: 0.35 °C
- ΔTm [12]: 0.53 °C
- ΔTm [13]: 0.53 °C
- ΔTm [14]: 0.32 °C
- ΔTm (Peregrin (Homo sapiens) [15]): 7.61 °C and 6.99 °C and 6.03 °C
- ΔTm [16]: 3.15 °C and 3.42 °C
- ΔTm [17]: 0.28 °C
- ΔTm [18]: 0.87 °C
- ΔTm [19]: 0.5 °C
- ΔTm [20]: 0.82 °C
- ΔTm [21]: 1.42 °C
- ΔTm [22]: -0.9 °C and 1.4 °C
- ΔTm [23]: 1.16 °C and 2.05 °C
- ΔTm [24]: 0.36 °C and 0.33 °C
- ΔTm [25]: -0.25 °C
- ΔTm [26]: 0.21 °C
- ΔTm [27]: 0.35 °C
- inhibition [28]: 9.06%
- ΔTm [29]: 0.37 °C
- ΔTm [30]: 1.85 °C and 3.4 °C
- ΔTm [31]: 0.91 °C
- ΔTm [32]: 0.53 °C
- ΔTm [33]: 1.93 °C
- ΔTm [34]: 0.79 °C and 1.4 °C
- ΔTm [35]: 0.15 °C
- ΔTm [36]: 0.96 °C
- ΔTm [37]: -1.08 °C and 1.68 °C
- ΔTm (Peregrin (Homo sapiens) [38]): 0.46 °C and 0.95 °C
- IC50 [39]: 128 nM
- ΔTm [40]: 1.14 °C
- ΔTm [41]: 1.07 °C
- ΔTm [42]: 0.38 °C
- ΔTm [43]: 1.02 °C
- ΔTm [44]: 0.5 °C
- ΔTm ([45]; Protein concentration 2.0 uM): -0.61 °C
- ΔTm ([45]; Protein concentration […]): -0.23 °C
- ΔTm [46]: 1.31 °C
- ΔTm [47]: 1.5 °C
- ΔTm [48]: 0.36 °C
- ΔTm [49]: 1.67 °C
- ΔTm [50]: 1.74 °C
- ΔTm [51]: 1.41 °C
Structure (SMILES): COc1cc2c(cc1NS(=O)(=O)c1ccc(Br)cc1C)n(C)c(=O)n2C
